Values quoted from earlier work in US10709795B2, “Method for delivering pharmaceutical nanoparticles to cancer cells” (National Guard Health Affairs, priority 2017, dated 2020).
Where two headings read alike, the source gives them in different places.

Tests used:
[1] = not given; remark: listed apart in the source
[2] = Grades 1-4, N = 2448, 1st line of this name
[3] = Grades 1-4, N = 2448, 2nd line of this name

Endometrial Hyperplasia/Cancer, % (Grades 1-4, 1st line of this name): 0.8%
Endometrial Hyperplasia/Cancer, % (Grades 1-4, 2nd line of this name): 0.3%
Alopecia, % (Grades 1-4, N = 2448): 3.4%
Angina, % (Grades 1-4, N = 2448): 1.3%
Angine, % (Grades 1-4, N = 2448): 1.1%
Anorexia, % (Grades 1-4, N = 2448): 1.5%
Arthralgia/Arthritis, % (Grades 1-4, N = 2448): 25.2%
Back pain, % (Grades 1-4, N = 2448): 5.1%
Bone Pain, % (Grades 1-4, N = 2448): 5.0%
Breast Pain, % (Grades 1-4, N = 2448): 2.0%
Cataract, % (Grades 1-4, N = 2448): 2.0%
Constipation, % (Grades 1-4, N = 2448): 2.0%
Depression, % (Grades 1-4, N = 2448): 4.9%
Dizziness/Light headedness, % (Grades 1-4, N = 2448): 3.4%
Edema, % (Grades 1-4, N = 2448): 6.7%
Fatigue (Lethargy, Malaise, Asthenia), % (Grades 1-4, N = 2448): 9.6%
Headache, % (Grades 1-4, N = 2448): 4.3%
Hot Flashes/Flushes, % (Grades 1-4, N = 2448): 33.5%
Hypercholesterolemia, % (Grades 1-4, N = 2448): 52.3%
Myalgia, % (Grades 1-4, N = 2448): 8.9%
Myocardial Ischemia, % (Grades 1-4, N = 2448): 0.2%
Nausea, % (Grades 1-4, N = 2448): 11.6%
Night Sweats, % (Grades 1-4, N = 2448): 25.2%
Osteopenia, % (Grades 1-4, N = 2448): 3.6%
Osteoporosis NOS, % (Grades 1-4, N = 2448): 5.1%
Other Endometrial Disorders, % (Grades 1-4, N = 2448): <0.1%
Pain in extremity, % (Grades 1-4, N = 2448): 4.2%
Vaginal Bleeding, % (Grades 1-4, N = 2448): 5.2%
Vomiting, % (Grades 1-4, N = 2448): 3.3%
Weight Decrease, % (Grades 1-4, N = 2448): 5.7%
Weight Increase, % (Grades 1-4, N = 2448): 13.8%
Bone Fractures, % [2]: 14.6%
Myocardial Infarction, % [2]: 1.0%
Second Malignancies, % [2]: 2.2%
Thromboembolic Event, % [2]: 2.1%
Bone Fractures, % [3]: 10.1%
Myocardial Infarction, % [3]: 1.5%
Second Malignancies, % [3]: 4.2%
Thromboembolic Event, % [3]: 2.9%
Anorexia, % (Grades 3-4, N = 2448): <0.1%
Arthralgia/Arthritis, % (Grades 3-4, N = 2448): 3.5%
Back pain, % (Grades 3-4, N = 2448): 0.3%
Bone Pain, % (Grades 3-4, N = 2448): 0.2%
Breast Pain, % (Grades 3-4, N = 2448): <0.1%
Cataract, % (Grades 3-4, N = 2448): 0.7%
Constipation, % (Grades 3-4, N = 2448): 0.1%
Depression, % (Grades 3-4, N = 2448): 0.7%
Dizziness/Light headedness, % (Grades 3-4, N = 2448): <0.1%
Edema, % (Grades 3-4, N = 2448): 0.1%
Fatigue (Lethargy, Malaise, Asthenia), % (Grades 3-4, N = 2448): 0.2%
Headache, % (Grades 3-4, N = 2448): 0.4%
Hypercholesterolemia, % (Grades 3-4, N = 2448): 0.4%
Myalgia, % (Grades 3-4, N = 2448): 0.7%
Nausea, % (Grades 3-4, N = 2448): 0.2%
Osteoporosis NOS, % (Grades 3-4, N = 2448): 0.4%
Pain in extremity, % (Grades 3-4, N = 2448): 0.1%
Vaginal Bleeding, % (Grades 3-4, N = 2448): <0.1%
Vomiting, % (Grades 3-4, N = 2448): 0.1%
Weight Decrease, % (Grades 3-4, N = 2448): 0.3%
Weight Increase, % (Grades 3-4, N = 2448): 1.1%
water solubility (in words) [1]: water insoluble
Structure (SMILES): N#Cc1ccc(C(c2ccc(C#N)cc2)n2cncn2)cc1 [Femara, Letrozole]
Endometrial proliferation Disorders, % (Grades 1-4, N = 2448): 0.3%
Pts with any adverse event, % (Grades 1-4, N = 2448): 94.4%
Vaginal Irritation, % (Grades 1-4, N = 2448): 4.5%
Cerebrovascular Accident, % [2]: 2.1%
Other Cardiovascular1, % [2]: 10.6%
Cerebrovascular Accident, % [3]: 2.9%
Other Cardiovascular1, % [3]: 12.7%
Pts with any adverse event, % (Grades 3-4, N = 2448): 25.9%
Vaginal Irritation, % (Grades 3-4, N = 2448): <0.1%
